# Calls of active or inactive are those of the source. The rule behind the calls is not given here.
# How the values were obtained:
# Assay in all cases: potency against CXCR6 with APJ panel – cell-based, beta-arrestin, DiscoveRx, uHTS hits, dose response (AID 624129)
# [1] = molecular target: C-C chemokine receptor type 6 (Homo sapiens) (UniProt P51684); settings: CXCR6 beta-arrestin (DiscoveRx) antagonist cell assay
# [2] = molecular target: Beta-galactosidase (Escherichia coli) (UniProt Q8VNN2); settings: CXCR6 beta-arrestin (DiscoveRx) antagonist cell assay, b-galactosidase
# Beta-galactosidase (Escherichia coli), sequence (Q8VNN2 whole entry, looked up): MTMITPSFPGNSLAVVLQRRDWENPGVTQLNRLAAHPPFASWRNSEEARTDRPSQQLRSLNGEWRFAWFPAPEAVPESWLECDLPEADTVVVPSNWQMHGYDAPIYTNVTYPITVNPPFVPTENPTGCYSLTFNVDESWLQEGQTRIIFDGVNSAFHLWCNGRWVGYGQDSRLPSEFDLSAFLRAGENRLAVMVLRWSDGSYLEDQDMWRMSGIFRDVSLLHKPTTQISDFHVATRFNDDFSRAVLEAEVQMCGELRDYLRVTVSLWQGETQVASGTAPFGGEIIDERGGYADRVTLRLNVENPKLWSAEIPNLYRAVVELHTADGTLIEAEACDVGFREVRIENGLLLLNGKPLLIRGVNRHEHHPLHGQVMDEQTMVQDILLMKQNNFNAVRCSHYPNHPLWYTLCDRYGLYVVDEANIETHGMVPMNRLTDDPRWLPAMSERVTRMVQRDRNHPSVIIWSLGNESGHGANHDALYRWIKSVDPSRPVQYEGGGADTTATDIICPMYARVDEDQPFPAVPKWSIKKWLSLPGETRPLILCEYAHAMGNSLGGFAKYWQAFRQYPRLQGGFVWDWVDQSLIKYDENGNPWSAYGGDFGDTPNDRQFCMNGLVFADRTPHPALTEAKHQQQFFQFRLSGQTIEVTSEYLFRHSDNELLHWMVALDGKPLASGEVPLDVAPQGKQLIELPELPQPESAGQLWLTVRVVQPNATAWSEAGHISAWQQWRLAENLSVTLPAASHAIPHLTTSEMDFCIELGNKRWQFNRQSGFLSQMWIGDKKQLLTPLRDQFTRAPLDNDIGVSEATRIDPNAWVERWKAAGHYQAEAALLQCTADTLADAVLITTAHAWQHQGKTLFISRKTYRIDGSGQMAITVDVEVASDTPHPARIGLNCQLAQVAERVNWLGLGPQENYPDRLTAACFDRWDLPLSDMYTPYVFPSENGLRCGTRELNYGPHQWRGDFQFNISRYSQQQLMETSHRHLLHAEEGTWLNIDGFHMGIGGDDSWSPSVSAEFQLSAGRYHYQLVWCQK
# [3] = molecular target: Apelin receptor (Homo sapiens) (UniProt P35414); settings: CXCR6 beta-arrestin (DiscoveRx) antagonist cell assay, APJ
# [4] = molecular target: C-X-C chemokine receptor type 6 (Homo sapiens) (UniProt O00574); settings: CXCR6 beta-arrestin (DiscoveRx) antagonist cell assay; for inhibition: CXCR6, run 1, dose range 2, at 80 µM (top of the series)
# C-X-C chemokine receptor type 6 (Homo sapiens), sequence (O00574 whole entry, looked up): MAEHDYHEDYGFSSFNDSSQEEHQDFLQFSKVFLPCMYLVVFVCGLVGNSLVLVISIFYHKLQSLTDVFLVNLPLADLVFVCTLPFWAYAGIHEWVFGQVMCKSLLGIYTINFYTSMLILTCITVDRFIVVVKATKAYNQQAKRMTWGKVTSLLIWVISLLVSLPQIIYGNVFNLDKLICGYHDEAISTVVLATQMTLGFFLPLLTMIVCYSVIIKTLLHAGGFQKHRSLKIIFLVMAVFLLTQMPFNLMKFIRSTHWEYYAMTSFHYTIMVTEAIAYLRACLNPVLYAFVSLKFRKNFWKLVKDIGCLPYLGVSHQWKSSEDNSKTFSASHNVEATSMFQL
# [5] = CCR6, dose range 1, mean IC50 across replicates
# [6] = dose range 1, mean IC50 across replicates
# [7] = CXCR6, dose range 1, mean IC50 across replicates
"IC50 [1, 5] [µM]","IC50 ([1]; CCR6, run 2, dose range 1) [µM]",IC50 ([2]; dose range 1),"IC50 [2, 6] [µM]","IC50 [3, 6] [µM]","IC50 ([3]; run 2, dose range 1) [µM]","IC50 ([3]; run 3, dose range 1) [µM]","IC50 ([4]; CXCR6, dose range 1)","IC50 [4, 7] [µM]",inhibition [4] [%],"IC50 ([4]; CXCR6, run 2, dose range 1) [µM]","IC50 ([1]; CCR6, dose range 1) [µM]",IC50 ([3]; dose range 1) [µM],"IC50 ([4]; CXCR6, run 1, dose range 2) [µM]","IC50 ([4]; CXCR6, run 2, dose range 2) [µM]",Compound
> 80,> 80,> 80 µM (inactive),> 80,> 80,> 80,> 80,> 80 µM (inactive),> 80,-34.5,> 80,–,–,–,–,COc1ccc(C(=O)/C=C/C(=O)N(CC(=O)NC2CCCCC2)CC2CCCO2)c(O)c1 (configuration not stated)
8.78,10.2,> 80 µM (inactive),> 80,19.5,35,11.8,inactive,13.5,92.1,12.7,7.32,11.7,–,–,CCOc1ccc2nc(NC(=O)c3ccccn3)sc2c1
18.8,23.3,31.8 µM,31.8,19.1,22.8,> 80,inactive,21.8,157,24,14.3,15.5,–,–,Cc1ccc(C(C[N+](=O)[O-])Sc2ccc(N)cc2)cc1 (configuration not stated)
7.29,6.75,> 80 µM (inactive),> 80,8.52,9.7,10,9.66 µM,6.87,–,7.93,7.84,5.81,3.62,6.29,NNc1nc(-c2ccccc2)cc(-c2ccccc2O)n1
> 80,> 80,> 80 µM (inactive),> 80,> 80,> 80,> 80,> 80 µM (inactive),> 80,-36.2,> 80,–,–,–,–,COc1ccc(NC(=O)/C(Cl)=C(/Cl)S(=O)Cc2ccc(Cl)cc2)cn1 (configuration not stated)

# — PubChem BioAssay AID624129 (Sanford-Burnham Center for Chemical Genomics, 2012)
